In patent publication US20070142392A1, “Uses of rifamycins” (ActivBiotics, Inc., priority 2005, published 2007):
In brackets after ≈: the same amount, converted by molar mass.

Legend:
Format in all cases: cell-based
H. flu = tested on: H. flu
E. faecalis = assay: MIC values, E. faecalis (Tables 1-4)
S. pneumo. = assay: MIC values, S. pneumo. (Tables 1-4)
E. coli = assay: MIC values, E. coli (Tables 1-4)
S. aureus = assay: MIC values, S. aureus (Tables 1-4)

Structure (SMILES)	MIC H. flu (H. flu) [µg/mL]	MIC E. faecalis (E. faecalis) [µg/mL]	MIC S. pneumo. (S. pneumo.) [µg/mL]	MIC E. coli (E. coli) [µg/mL]	MIC S. aureus (S. aureus) [µg/mL]
COCCN1CCN(c2cc(O)c3nc4c5c6c7c(C)c(O)c5c(=O)c(c-4oc3c2)NC(=O)/C(C)=C\C=C\[C@H](C)[C@H](O)[C@@H](C)[C@@H](O)[C@@H](C)[C@H](O)[C@H](C)[C@@H](OC)/C=C/O[C@@](C)(O7)C6=O)CC1 [Compound 92]	0.25 (≈ 0.277 µM)	0.12 (≈ 0.133 µM)	0.00025 (≈ 0.000277 µM)	8 (≈ 8.88 µM)	0.004 (≈ 0.00444 µM)
CC[C@H]1CN(c2cc(O)c3nc4c5c6c7c(C)c(O)c5c(=O)c(c-4oc3c2)NC(=O)/C(C)=C\C=C\[C@H](C)[C@H](O)[C@@H](C)[C@@H](O)[C@@H](C)[C@H](O)[C@H](C)[C@@H](OC)/C=C/O[C@@](C)(O7)C6=O)C[C@H](C)N1 [Compound 93]	0.25 (≈ 0.282 µM)	0.5 (≈ 0.565 µM)	0.00012 (≈ 0.000136 µM)	4 (≈ 4.52 µM)	0.004 (≈ 0.00452 µM)
CCOc1c(N2CCN(CC)CC2)ccc2nc3c4c5c6c(C)c(O)c4c(=O)c(c-3oc12)NC(=O)/C(C)=C\C=C\[C@H](C)[C@H](O)[C@@H](C)[C@@H](O)[C@@H](C)[C@H](O)[C@H](C)[C@@H](OC)/C=C/O[C@@](C)(O6)C5=O [Compound 94]	0.25 (≈ 0.278 µM)	0.5 (≈ 0.556 µM)	0.0005 (≈ 0.000556 µM)	8 (≈ 8.9 µM)	0.008 (≈ 0.0089 µM)
CCOc1c(N2CCN(CCOC)CC2)cc(N2CCN(CCOC)CC2)c2nc3c4c5c6c(C)c(O)c4c(=O)c(c-3oc12)NC(=O)/C(C)=C\C=C\[C@H](C)[C@H](O)[C@@H](C)[C@@H](O)[C@@H](C)[C@H](O)[C@H](C)[C@@H](OC)/C=C/O[C@@](C)(O6)C5=O [Compound 95]	2 (≈ 1.87 µM)	8 (≈ 7.47 µM)	0.001 (≈ 0.000933 µM)	>8	0.12 (≈ 0.112 µM)
CCOc1c(N2CCN(CCOC)CC2)ccc2nc3c4c5c6c(C)c(O)c4c(=O)c(c-3oc12)NC(=O)/C(C)=C\C=C\[C@H](C)[C@H](O)[C@@H](C)[C@@H](O)[C@@H](C)[C@H](O)[C@H](C)[C@@H](OC)/C=C/O[C@@](C)(O6)C5=O [Compound 96]	0.5 (≈ 0.538 µM)	1 (≈ 1.08 µM)	0.005 (≈ 0.00538 µM)	>8	0.015 (≈ 0.0161 µM)
CO[C@H]1/C=C/O[C@@]2(C)Oc3c(C)c(O)c4c(=O)c(c5oc6cc(N7CCN(C8CCN(C)CC8)CC7)cc(O)c6nc-5c4c3C2=O)NC(=O)/C(C)=C\C=C\[C@H](C)[C@H](O)[C@@H](C)[C@@H](O)[C@@H](C)[C@H](O)[C@@H]1C [Compound 98]	1 (≈ 1.06 µM)	0.5 (≈ 0.532 µM)	0.002 (≈ 0.00213 µM)	>8	0.015 (≈ 0.016 µM)
CO[C@H]1/C=C/O[C@@]2(C)Oc3c(C)c(O)c4c(=O)c(c5oc6cc(N7CCN(CC8CC8)CC7)cc(O)c6nc-5c4c3C2=O)NC(=O)/C(C)=C\C=C\[C@H](C)[C@H](O)[C@@H](C)[C@@H](O)[C@@H](C)[C@H](O)[C@@H]1C [Compound 99]	0.25 (≈ 0.279 µM)	0.06 (≈ 0.0669 µM)	0.0005 (≈ 0.000557 µM)	2 (≈ 2.23 µM)	0.008 (≈ 0.00892 µM)
COC1C=COC2(C)Oc3c(C)c(O)c4c(=O)c(c5oc6cc(N7CC(C)NCC7C)cc(O)c6nc-5c4c3C2=O)NC(=O)C(C)=CC=CC(C)C(O)C(C)C(O)C(C)C(O)C1C (stereo not shown) [Compound 100]	0.25 (≈ 0.287 µM)	0.12 (≈ 0.138 µM)	0.0005 (≈ 0.000574 µM)	4 (≈ 4.59 µM)	0.004 (≈ 0.00459 µM)
CO[C@H]1/C=C/O[C@@]2(C)Oc3c(C)c(O)c4c(=O)c(c5oc6cc(N7CCN(CCO)CC7)cc(O)c6nc-5c4c3C2=O)NC(=O)/C(C)=C\C=C\[C@H](C)[C@H](O)[C@@H](C)[C@@H](O)[C@@H](C)[C@H](O)[C@@H]1C [Compound 101]	0.25 (≈ 0.282 µM)	0.12 (≈ 0.135 µM)	0.0005 (≈ 0.000564 µM)	8 (≈ 9.02 µM)	0.008 (≈ 0.00902 µM)
CO[C@H]1/C=C/O[C@@]2(C)Oc3c(C)c(O)c4c(=O)c(c5oc6cc(N7CCN(CCN(C)C)CC7)cc(O)c6nc-5c4c3C2=O)NC(=O)/C(C)=C\C=C\[C@H](C)[C@H](O)[C@@H](C)[C@@H](O)[C@@H](C)[C@H](O)[C@@H]1C [Compound 103]	0.12 (≈ 0.131 µM)	0.5 (≈ 0.547 µM)	0.008 (≈ 0.00875 µM)	>8	0.03 (≈ 0.0328 µM)
CO[C@H]1/C=C/O[C@@]2(C)Oc3c(C)c(O)c4c(=O)c(c5sc6cc(N7CCN(C)CC7)ccc6nc-5c4c3C2=O)NC(=O)/C(C)=C\C=C\[C@H](C)[C@H](O)[C@@H](C)[C@@H](O)[C@@H](C)[C@H](O)[C@@H]1C [Compound 104]	0.12 (≈ 0.14 µM)	0.12 (≈ 0.14 µM)	0.00012 (≈ 0.00014 µM)	2 (≈ 2.33 µM)	0.002 (≈ 0.00233 µM)
